Data from ChEMBL document CHEMBL4616632, “Discovery of Cyclic Boronic Acid QPX7728, an Ultrabroad-Spectrum Inhibitor of Serine and Metallo-β-lactamases” (J Med Chem, 2020).

Key:
[1] = molecular target: Beta-lactamase OXA-23 (Acinetobacter baumannii) (UniProt Q9L4P2); test: Inhibition of Acinetobacter baumannii AB1054 OXA-23 assessed as minimum concentration of compound needed to reduce the MIC of meropenem to 8 ug/ml
[2] = test system: Klebsiella pneumoniae; test: Inhibition of Klebsiella pneumoniae KP1081 NDM-1 assessed as minimum concentration of compound required to reduce the MIC of biapenem to 1 ug/ml
[3] = test system: Enterobacter cloacae; test: Inhibition of Enterobacter cloacae ECL1002 AmpC assessed as minimum concentration of compound needed to reduce the MIC of aztreonam to 4 ug/ml
[4] = test system: Escherichia coli; test: Inhibition of Escherichia coli EC302 TEM-10 assessed as minimum concentration of compound needed to reduce the MIC of aztreonam to 4 ug/ml
[5] = test system: Escherichia coli; test: Inhibition of Escherichia coli ECM6619 TEM-10 assessed as minimum concentration of compound needed to reduce the MIC of aztreonam to 4 ug/ml
[6] = test system: Klebsiella pneumoniae; test: Inhibition of Klebsiella pneumoniae KP1009 CTX-M-15 assessed as minimum concentration of compound required to reduce the MIC of aztreonam to 4 ug/ml
[7] = test system: Klebsiella pneumoniae; test: Inhibition of Klebsiella pneumoniae KP1160 IMP-26 assessed as minimum concentration of compound needed to reduce the MIC of meropenem to 1 ug/ml
[8] = test system: Escherichia coli; test: Inhibition of Escherichia coli ECM6625 SHV-5 assessed as minimum concentration of compound needed to reduce the MIC of aztreonam to 4 ug/ml
[9] = test system: Acinetobacter baumannii; test: Inhibition of Acinetobacter baumannii AB1053 OXA-72 assessed as minimum concentration of compound needed to reduce the MIC of meropenem to 8 ug/ml
[10] = test system: Klebsiella pneumoniae; test: Inhibition of Klebsiella pneumoniae KP1054 VIM-1 assessed as minimum concentration of compound required to reduce the MIC of biapenem to 1 ug/ml
[11] = test system: Escherichia coli; test: Inhibition of Escherichia coli KP308 SHV-5 assessed as minimum concentration of compound required to reduce the MIC of aztreonam to 4 ug/ml
[12] = test system: Pseudomonas aeruginosa; test: Inhibition of Pseudomonas aeruginosa PAM 2035 AmpC assessed as minimum concentration of compound needed to reduce the MIC of aztreonam to 4 ug/ml
[13] = molecular target: Beta-lactamase (Klebsiella pneumoniae) (UniProt Q93LQ9); test: Inhibition of Klebsiella pneumoniae KP1004 KPC-2 assessed as minimum concentration of compound needed to reduce the MIC of aztreonam to 4 ug/ml
Chain of Beta-lactamase (Klebsiella pneumoniae) (Q93LQ9 as listed by the source): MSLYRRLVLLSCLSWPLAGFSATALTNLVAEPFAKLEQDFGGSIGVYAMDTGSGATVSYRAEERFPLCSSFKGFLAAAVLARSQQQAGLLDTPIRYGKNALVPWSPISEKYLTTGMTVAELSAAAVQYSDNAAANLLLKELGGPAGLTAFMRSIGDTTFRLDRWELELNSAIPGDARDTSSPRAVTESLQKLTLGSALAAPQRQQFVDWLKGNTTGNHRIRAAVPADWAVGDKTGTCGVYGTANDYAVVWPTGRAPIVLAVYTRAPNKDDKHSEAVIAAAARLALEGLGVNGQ

Chain of Beta-lactamase OXA-23 (Acinetobacter baumannii) (Q9L4P2 whole entry): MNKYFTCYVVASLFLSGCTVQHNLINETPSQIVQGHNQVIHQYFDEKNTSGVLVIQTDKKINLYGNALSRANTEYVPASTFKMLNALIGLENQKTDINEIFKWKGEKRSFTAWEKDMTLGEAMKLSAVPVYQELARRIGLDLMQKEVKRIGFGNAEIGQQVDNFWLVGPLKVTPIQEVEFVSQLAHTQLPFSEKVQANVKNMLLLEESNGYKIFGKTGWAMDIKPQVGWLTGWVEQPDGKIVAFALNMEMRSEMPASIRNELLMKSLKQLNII

SMILES | MEC [1] | MEC [2] | MEC [3] | MEC [4] | MEC [5] | MEC [6] | MEC [7] | MEC [8] | MEC [9] | MEC [10] | MEC [11] | MEC [12] | MEC [13]
COc1ccc2c(c1C(=O)O)OB(O)CC21CC1 | 2.5 µg/mL | 2.5 µg/mL | 2.5 µg/mL | 5 µg/mL | 5 µg/mL | 2.5 µg/mL | > 20 µg/mL | 1.25 µg/mL | 1.25 µg/mL | 20 µg/mL | 1.25 µg/mL | 10 µg/mL | 1.25 µg/mL
C[C@H]1Cc2cccc(C(=O)O)c2OB1O | > 20 µg/mL | 1.25 µg/mL | 20 µg/mL | > 20 µg/mL | > 20 µg/mL | > 20 µg/mL | > 20 µg/mL | 20 µg/mL | > 20 µg/mL | 5 µg/mL | 20 µg/mL | 1.25 µg/mL | 1.25 µg/mL
COc1ccc2c(c1C(=O)O)OB(O)C=C2 | > 20 µg/mL | > 20 µg/mL | 10 µg/mL | 20 µg/mL | 20 µg/mL | 10 µg/mL | > 20 µg/mL | 20 µg/mL | 20 µg/mL | > 20 µg/mL | 20 µg/mL | 10 µg/mL | 2.5 µg/mL
CS[C@H]1Cc2cccc(C(=O)O)c2OB1O | – | 0.6 µg/mL | > 20 µg/mL | > 20 µg/mL | – | > 20 µg/mL | – | – | – | < 0.3 µg/mL | > 20 µg/mL | – | 2.5 µg/mL
O=C(O)c1cccc2c1OB(O)[C@@H](Sc1ccccn1)C2 | – | > 20 µg/mL | > 10 µg/mL | > 10 µg/mL | – | > 10 µg/mL | – | – | – | > 20 µg/mL | > 10 µg/mL | – | > 10 µg/mL
O=C(O)c1c(OCCF)ccc2c1OB(O)[C@@H](Sc1nncs1)C2 | – | 0.6 µg/mL | > 20 µg/mL | 20 µg/mL | – | 20 µg/mL | 2.5 µg/mL | – | – | 0.16 µg/mL | 5 µg/mL | 20 µg/mL | 5 µg/mL
Nc1nnc(S[C@H]2Cc3cccc(C(=O)O)c3OB2O)[nH]1 | – | < 0.3 µg/mL | > 20 µg/mL | > 20 µg/mL | – | > 20 µg/mL | – | – | – | < 0.3 µg/mL | > 20 µg/mL | – | > 20 µg/mL
O=C(O)c1cccc2c1OB(O)[C@@H](Sc1ncc[nH]1)C2 | – | > 20 µg/mL | > 10 µg/mL | > 10 µg/mL | – | > 10 µg/mL | – | – | – | > 20 µg/mL | > 10 µg/mL | – | > 10 µg/mL
O=C(O)c1cccc2c1OB(O)[C@@H](Sc1ncccn1)C2 | – | 10 µg/mL | > 20 µg/mL | > 20 µg/mL | – | > 20 µg/mL | – | – | – | 20 µg/mL | > 20 µg/mL | – | > 20 µg/mL
O=C(O)c1c(OCC2CC2)ccc2c1OB(O)[C@@H](Sc1nncs1)C2 | – | 1.25 µg/mL | > 20 µg/mL | 20 µg/mL | – | > 20 µg/mL | 0.3 µg/mL | – | – | 0.16 µg/mL | 10 µg/mL | 20 µg/mL | > 20 µg/mL
NC(=O)CS[C@H]1Cc2cccc(C(=O)O)c2OB1O | – | 0.6 µg/mL | > 10 µg/mL | > 10 µg/mL | – | > 10 µg/mL | – | – | – | 2.5 µg/mL | > 10 µg/mL | – | 5 µg/mL
COCCOc1ccc2c(c1C(=O)O)OB(O)[C@@H](Sc1nncs1)C2 | – | 0.6 µg/mL | > 20 µg/mL | > 20 µg/mL | – | 20 µg/mL | 1.25 µg/mL | – | – | 0.16 µg/mL | 10 µg/mL | > 20 µg/mL | 20 µg/mL
O=C(O)c1cccc2c1OB(O)[C@@H](Sc1cccnc1)C2 | – | 2.5 µg/mL | > 20 µg/mL | > 20 µg/mL | – | > 20 µg/mL | – | – | – | 1.25 µg/mL | > 20 µg/mL | – | > 20 µg/mL
Nn1cnnc1S[C@H]1Cc2cccc(C(=O)O)c2OB1O | – | 0.16 µg/mL | 5 µg/mL | > 20 µg/mL | – | 10 µg/mL | – | – | – | 0.3 µg/mL | 10 µg/mL | – | 5 µg/mL
CSCCOc1ccc2c(c1C(=O)O)OB(O)[C@@H](Sc1nncs1)C2 | – | 2.5 µg/mL | > 20 µg/mL | > 20 µg/mL | – | > 20 µg/mL | 0.6 µg/mL | – | – | 1.25 µg/mL | 10 µg/mL | 10 µg/mL | 20 µg/mL
O=C(O)c1nccc2c1OB(O)CC2 | 2.5 µg/mL | 1.25 µg/mL | 1.25 µg/mL | – | 0.08 µg/mL | 2.5 µg/mL | > 20 µg/mL | 5 µg/mL | 1.25 µg/mL | 20 µg/mL | – | 0.3 µg/mL | 0.16 µg/mL
O=C(O)c1c(OC2COC2)ccc2c1OB(O)[C@@H](Sc1nncs1)C2 | – | > 20 µg/mL | > 20 µg/mL | > 20 µg/mL | – | > 20 µg/mL | > 20 µg/mL | – | – | 20 µg/mL | > 20 µg/mL | > 20 µg/mL | > 20 µg/mL

SMILES | MEC [1] | MEC [2] | MEC [3] | MEC [4] | MEC [5] | MEC [6] | MEC [7] | MEC [8] | MEC [9] | MEC [10] | MEC [11] | MEC [12] | MEC [13]
Nc1nnc(S[C@H]2Cc3ccc(OCC(F)F)c(C(=O)O)c3OB2O)s1 | – | 1.25 µg/mL | > 20 µg/mL | > 20 µg/mL | – | > 20 µg/mL | 1.25 µg/mL | – | – | 0.3 µg/mL | > 20 µg/mL | 20 µg/mL | 10 µg/mL
O=C(O)c1cccc2c1OB(O)[C@@H](OC1CNC1)C2 | – | 0.6 µg/mL | 2.5 µg/mL | > 20 µg/mL | – | > 20 µg/mL | – | – | – | 0.6 µg/mL | > 20 µg/mL | – | > 20 µg/mL
O=C(O)c1c(OC(F)F)ccc2c1OB(O)[C@@H](Sc1nncs1)C2 | – | 1.25 µg/mL | > 20 µg/mL | 20 µg/mL | – | 20 µg/mL | 20 µg/mL | – | – | 1.25 µg/mL | 2.5 µg/mL | 20 µg/mL | 5 µg/mL
O=C(O)c1cccc2c1OB(O)[C@@H](Sc1nccs1)C2 | – | 0.3 µg/mL | > 20 µg/mL | > 20 µg/mL | – | > 20 µg/mL | – | – | – | 2.5 µg/mL | 10 µg/mL | – | > 20 µg/mL
O=C(O)c1c(F)ccc2c1OB(O)[C@@H](Sc1nncs1)C2 | – | 0.6 µg/mL | 5 µg/mL | 5 µg/mL | – | 10 µg/mL | 20 µg/mL | – | – | 1.25 µg/mL | 0.3 µg/mL | 20 µg/mL | 2.5 µg/mL
N#CCOc1ccc2c(c1C(=O)O)OB(O)[C@@H](Sc1nncs1)C2 | – | 2.5 µg/mL | > 20 µg/mL | 20 µg/mL | – | > 20 µg/mL | > 20 µg/mL | – | – | 2.5 µg/mL | 10 µg/mL | > 20 µg/mL | 20 µg/mL
NC(=O)CCS[C@H]1Cc2cccc(C(=O)O)c2OB1O | – | 1.25 µg/mL | > 20 µg/mL | > 20 µg/mL | – | > 20 µg/mL | – | – | – | 1.25 µg/mL | > 20 µg/mL | – | 5 µg/mL
O=C(O)c1cccc2c1OB(O)[C@@H](Sc1c[nH]nn1)C2 | – | 0.3 µg/mL | > 20 µg/mL | > 20 µg/mL | – | > 20 µg/mL | – | – | – | 0.6 µg/mL | 5 µg/mL | – | > 20 µg/mL
O=C(O)c1c(F)ccc2c1OB(O)CC2 | 2.5 µg/mL | 0.6 µg/mL | 0.16 µg/mL | – | 0.08 µg/mL | 0.6 µg/mL | > 20 µg/mL | 0.6 µg/mL | 2.5 µg/mL | 5 µg/mL | – | 0.6 µg/mL | 0.16 µg/mL
Nc1nnc(S[C@H]2Cc3cccc(C(=O)O)c3OB2O)s1 | – | 0.3 µg/mL | > 10 µg/mL | > 10 µg/mL | – | > 10 µg/mL | – | – | – | 0.16 µg/mL | 5 µg/mL | – | 10 µg/mL
Cn1cnnc1S[C@H]1Cc2cccc(C(=O)O)c2OB1O | – | < 0.3 µg/mL | > 20 µg/mL | > 20 µg/mL | – | > 20 µg/mL | – | – | – | < 0.3 µg/mL | > 20 µg/mL | – | > 20 µg/mL
O=C(O)c1cccc2c1OB(O)CC2 | 20 µg/mL | 1.25 µg/mL | 5 µg/mL | – | 10 µg/mL | 20 µg/mL | > 20 µg/mL | 20 µg/mL | > 20 µg/mL | 10 µg/mL | – | 0.6 µg/mL | 0.6 µg/mL
O=C(O)c1cccc2c1OB(O)[C@@H](Sc1nnc[nH]1)C2 | – | < 0.3 µg/mL | > 40 µg/mL | > 40 µg/mL | – | 5 µg/mL | – | – | – | 2.5 µg/mL | > 40 µg/mL | – | > 40 µg/mL
N=C(N)S[C@H]1Cc2cccc(C(=O)O)c2OB1O | – | > 20 µg/mL | > 20 µg/mL | > 20 µg/mL | – | > 20 µg/mL | – | – | – | > 20 µg/mL | > 20 µg/mL | – | > 20 µg/mL
CO[C@H]1Cc2cccc(C(=O)O)c2OB1O | – | 0.6 µg/mL | 2.5 µg/mL | 20 µg/mL | – | 10 µg/mL | – | – | – | 0.16 µg/mL | 2.5 µg/mL | – | 0.3 µg/mL
O=C(O)c1c(OCc2nncs2)ccc2c1OB(O)[C@@H](Sc1nncs1)C2 | – | 2.5 µg/mL | > 20 µg/mL | 5 µg/mL | – | 20 µg/mL | 2.5 µg/mL | – | – | 0.3 µg/mL | 5 µg/mL | > 20 µg/mL | 20 µg/mL
